Reference: patent US7964531B2, “3-phenoxy-4-pyridazinol derivatives and herbicidal composition containing the same” (Mitsui Chemicals Agro, Inc., priority 2001, dated 2011)

| Structure (SMILES) | melting point [°C] |
| --- | --- |
| Cc1c(F)ccc(C2CC2)c1Oc1nnc(Cl)cc1O [Compound No. 1052, 6-Chloro-3-(6-cyclopropyl-3-fluoro-2-methylphenoxy)-4-pyridazinol] | 230 to 231 |
| Cc1ccc(C(=O)Oc2cc(Cl)nnc2Oc2c(C)cccc2C2CC2)cc1 [Compound No. 1566, 6-Chloro-3-(2-cyclopropyl-6-methylphenoxy)-4-pyridazinyl 4-methylbenzoate] | 77.5 to 78 |
| COc1cccc(Oc2nnc(Cl)cc2O)c1C1CC1 [Compound No. 478, 6-Chloro-3-(2-cyclopropyl-3-methoxyphenoxy)-4-pyridazinol] | 184 to 185 |
| Cc1cccc(C2CC2)c1Oc1nnc(Cl)cc1O | 201 to 202 |
| COc1ccc(C)cc1Oc1nnc(Cl)cc1O [Compound No. 704, 6-Chloro-3-(2-methoxy-5-methylphenoxy)-4-pyridazinol] | 126 to 134 |
| CC(C)c1cccc(C2CC2)c1Oc1nnc(Cl)cc1O [Compound No. 896, 6-Chloro-3-(2-cyclopropyl-6-isopropylphenoxy)-4-pyridazinol] | 242 to 245 |
| Oc1cc(Cl)nnc1Oc1cccc2c1CCC2 [Compound No. 506, 6-Chloro-3-(2,3-dihydro-1H-inden-4-yloxy)-4-pyridazinol] | 230 to 232 |
| CC(C)(C)c1ccccc1Oc1nnc(Cl)c([Si](C)(C)C)c1O | 160 to 163 |
| Cc1cc(C)c(Br)c(Oc2nnc(Cl)cc2O)c1C [Compound No. 1124, 3-(2-Bromo-3,5,6-trimethylphenoxy)-6-chloro-4-pyridazinol] | 280 to 290 |
| Oc1cc(Cl)nnc1Oc1c(Cl)cccc1I [Compound No. 735, 6-Chloro-3-(2-chloro-6-iodophenoxy)-4-pyridazinol] | 262 to 264 |
| Cc1ccc2c(c1Oc1nnc(Cl)cc1O)COC2 [Compound No. 2592, 6-Chloro-3-[(5-methyl-1,3-dihydro-2-benzofuran-4-yl)oxy]-4-pyridazinol] | 188 to 200 |
| C=CCc1cccc(CC=C)c1Oc1nnc(Cl)cc1O [Compound No. 982, 6-Chloro-3-(2,6-diallylphenoxy)-4-pyridazinol] | 131 to 135 |
| Oc1cc(Cl)nnc1Oc1ccccc1I [Compound No. 127, 6-Chloro-3-(2-iodophenoxy)-4-pyridazinol] | 216 to 217 |
| Cc1cccc(C2CC2)c1Oc1nnc(Cl)cc1OC(=O)OCC(C)C [Compound No. 1770, 6-Chloro-3-(2-cyclopropyl-6-methylphenoxy)-4-pyridazinyl isobutyl carbonate] | 72 to 74 |
| Cc1ccccc1Oc1nnc(-c2ccccc2)cc1O [Compound No. 2464, 3-(2-Methylphenoxy)-6-phenyl-4-pyridazinol] | 236 to 237 |
| CC=Cc1ccc(F)cc1Oc1nnc(Cl)cc1O [Compound No. 679, 6-Chloro-3-[5-fluoro-2-(1-propenyl)phenoxy]-4-pyridazinol] | 210 to 217 |
| Oc1cc(Cl)nnc1Oc1cccc2c1CCO2 [Compound No. 528, 6-Chloro-3-(2,3-dihydro-1-benzofuran-4-yloxy)-4-pyridazinol] | 219 to 221 |
| Cc1ccccc1Oc1n[n+]([O-])c(Cl)cc1O [Compound No. 129, 6-Chloro-3-(2-methylphenoxy)-4-pyridazinol 1-oxide] | 194 to 196 |
| CC(C)=Cc1ccccc1Oc1nnc(Cl)cc1O [Compound No. 2540, 6-Chloro-3-[2-(2-methyl-1-propenyl)phenoxy]-4-pyridazinol] | 149 to 152 |
| CN(C)S(=O)(=O)n1nccc1-c1ccccc1Oc1nnc(Cl)cc1O [Compound No. 369, 5-{2-[(6-Chloro-4-hydroxy-3-pyridazinyl)oxy]phenyl}N,N-dimethyl-1H-pyrazole-1-sulfonamide] | 151 to 152 |
| Cc1ccc(C(C)C)c(Oc2nnc(Cl)cc2OC(=O)c2ccccc2C)c1 [Compound No. 1459, 6-Chloro-3-(2-isopropyl-5-methylphenoxy)-4-pyridazinyl 2-methylbenzoate] | 95 to 97 |
| Cc1cccc(C2CC2)c1Oc1nnc(Cl)cc1OS(=O)(=O)C(F)(F)F [Compound No. 2106, 6-Chloro-3-(2-cyclopropyl-6-methylphenoxy)-4-pyridazinyl trifluoromethanesulfonate] | 64 to 67 |
| C[Si](C)(C)c1c(Cl)nnc(Oc2ccccc2)c1O | 119 to 120 |
| CC(C)(C)c1ccccc1Oc1nnc(Cl)cc1O [Compound No. 136, 3-(2-tert-Butylphenoxy)-6-chloro-4-pyridazinol] | 215 to 216 |
| CCc1cccc(CC)c1Oc1nnc(Cl)cc1O [Compound No. 846, 6-Chloro-3-(2,6-diethylphenoxy)-4-pyridazinol] | 181 to 185 |
| Cc1c(F)cccc1Oc1nnc(Cl)cc1O [Compound No. 453, 6-Chloro-3-(3-fluoro-2-methylphenoxy)-4-pyridazinol] | 242 to 244 |
| CCCCCCc1ccccc1Oc1nnc(Cl)cc1O [Compound No. 138, 6-Chloro-3-(2-hexylphenoxy)-4-pyridazinol] | 118 to 118.5 |
| CC1(c2ccccc2Oc2nnc(Cl)cc2O)CC1 [Compound No. 144, 6-Chloro-3-[2-(1-methylcyclopropyl)phenoxy]-4-pyridazinol] | 196 to 198 |
| CC1CCc2c(Oc3nnc(Cl)cc3O)cccc21 (centres unmarked) [Compound No. 510, 6-Chloro-3-[(1-methyl-2,3-dihydro-1H-inden-4-yl)oxy]-4-pyridazinol] | 228 to 230 |
| Cc1cc(Br)c(C)c(Br)c1Oc1nnc(Cl)cc1O [Compound No. 1118, 6-Chloro-3-(2,4-dibromo-3,6-dimethylphenoxy)-4-pyridazinol] | 241 to 248 |

Continued, values first:

| melting point [°C] | Structure (SMILES) |
| --- | --- |
| 133 to 134 | Cc1ccccc1C(=O)Oc1cc(Cl)nnc1Oc1cccc2ccccc12 [Compound No. 1461, 6-Chloro-3-(1-naphthyloxy)-4-pyridazinyl 2-methylbenzoate] |
| 214 to 215 | Cc1cccc(C)c1Oc1nnc(Cl)cc1O [Compound No. 801, 6-Chloro-3-(2,6-dimethylphenoxy)-4-pyridazinol] |
| 208 to 210 | Cc1cccc(C2CC2)c1Oc1nnc(Cl)cc1OC(=O)n1c(C)ccc1C [Compound No. 3630, 6-Chloro-3-(2-cyclopropyl-6-methylphenoxy)-4-pyridazinyl 2,5-dimethyl-1H-pyrrole-1-carboxylate] |
| 150 to 152 | COc1ccc(OC)c(Oc2nnc(Cl)cc2O)c1 [Compound No. 709, 6-Chloro-3-(2,5-dimethoxyphenoxy)-4-pyridazinol] |
| 102 to 104 | Cc1ccc(S(=O)(=O)Oc2cc(Cl)nnc2Oc2ccccc2C)cc1 [Compound No. 2220, 6-Chloro-3-(2-methylphenoxy)-4-pyridazinyl 4-methylbenzenesulfonate] |
| 221 to 222 | Cc1nc2c(Oc3nnc(Cl)cc3O)cccc2o1 [Compound No. 538, 6-Chloro-3-[(2-methyl-1,3-benzoxazol-4-yl)oxy]-4-pyridazinol] |
| 210 to 213 | Cc1cc2c(c(Oc3nnc(Cl)cc3O)c1C)CCC2 [Compound No. 1129, 6-Chloro-3-[(5,6-dimethyl-2,3-dihydro-1H-inden-4-yl)oxy]-4-pyridazinol] |
| 170 to 172 | CCCc1ccccc1Oc1nnc(Cl)cc1O [Compound No. 131, 6-Chloro-3-(2-propylphenoxy)-4-pyridazinol] |
| 232 to 234 | Oc1cc(Cl)nnc1Oc1c(C2CC2)cccc1C1CC1 [Compound No. 931, 6-Chloro-3-(2,6-dicyclopropylphenoxy)-4-pyridazinol] |
| 92 to 94 | Cc1ccc(S(=O)(=O)Oc2cc(Cl)nnc2Oc2cccc3ccccc23)cc1 [Compound No. 2240, 6-Chloro-3-(1-naphthyloxy)-4-pyridazinyl 4-methylbenzenesulfonate] |
| 153 to 157 | COc1ccccc1Oc1nnc(Cl)cc1OS(=O)(=O)c1ccc(C)cc1 [Compound No. 2232, 6-Chloro-3-(2-methoxyphenoxy)-4-pyridazinyl 4-methylbenzenesulfonate] |
| 220 to 223 | CC1(C)Cc2cccc(Oc3nnc(Cl)cc3O)c2C1 [Compound No. 513, 6-Chloro-3-[(2,2-dimethyl-2,3-dihydro-1H-inden-4-yl)oxy]-4-pyridazinol] |
| 110 to 112 | Cc1ccc(S(=O)(=O)Oc2cc(Cl)nnc2Oc2ccc(C(C)(C)C)cc2Br)cc1 [Compound No. 2245, 3-(2-Bromo-4-tert-butylphenoxy)-6-chloro-4-pyridazinyl 4-methylbenzenesulfonate] |
| 117 to 119 | Cc1cc(C)cc(C(=O)Oc2cc(Cl)nnc2Oc2c(C)cccc2C2CC2)c1 [Compound No. 3243, 6-Chloro-3-(2-cyclopropyl-6-methylphenoxy)-4-pyridazinyl 3,5-dimethylbenzoate] |
| 145 to 152 | CCOC1CC1c1ccccc1Oc1nnc(Cl)cc1O (centres unmarked) [Compound No. 249, 6-Chloro-3-[2-(2-ethoxycyclopropyl)phenoxy]-4-pyridazinol] |
| 249 to 250 | Nc1ccccc1OC1(Cl)NN=CC=C1O (centres unmarked) [Compound No. 377, 3-(2-Aminophenoxy)-3-chloro-4-pyridazinol] |
| 158 to 163 | Oc1cc(Cl)nnc1Oc1ccccc1C1CC1(Cl)Cl (centres unmarked) [Compound No. 265, 6-Chloro-3-[2-(2,2-dichlorocyclopropyl)phenoxy]-4-pyridazinol] |
| 182 to 184 | CC#Cc1ccccc1Oc1nnc(Cl)cc1O [Compound No. 309, 6-Chloro-3-[2-(1-propynyl)phenoxy]-4-pyridazinol] |
| 143 to 144 | Cc1cccc(C2CC2)c1Oc1nnc(Cl)cc1OC(=O)c1cccn1C [Compound No. 3282, 6-Chloro-3-(2-cyclopropyl-6-methylphenoxy)-4-pyridazinyl 1-methyl-1H-pyrrole-2-carboxylate] |
| 205 to 208 | Cc1cccc(Oc2nnc(Cl)cc2O)c1 [Compound No. 413, 6-Chloro-3-(3-methylphenoxy)-4-pyridazinol] |
